Data taken from patent US11707442B2, “Antibacterial and antifungal compounds” (The General Hospital Corporation, priority 2015, dated 2023).
In brackets after ≈: the same amount, converted by molar mass. Like-named read-outs stand apart in the source and are kept apart here.

Tests used:
S. aureus = assay: Minimal inhibitory concentration (MIC), broth microdilution; assay type: cell-based, Staphylococcus aureus; settings: Staphylococcus aureus
Method in brief: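 MIC values against methicillin-resistant Staphylococcus aureus were determined by standard broth microdilution following Clinical and Laboratory Standards Institute guidance (CLSI document M07-A8). Each well held 100 μl of test compound plus bacterial cells in MH broth, with the starting OD600 set to 0.03. Plates were incubated 18 hrs at 35° C. and absorbance was then read at 595 nm.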

A. baumannii = assay: MIC, broth microdilution; assay type: cell-based, Acinetobacter baumannii; settings: Acinetobacter baumannii, ATCC17978; A. baumannii ATCC 17978; read-out: Minimum inhibitory concentration
Method in brief: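 MIC by CLSI broth microdilution (M07-A8) in MH broth; E. aerogenes, K. pneumoniae and A. baumannii pre-grown in LB, E. faecium in BHI, at 37° C. Inoculum at initial OD600 0.03, incubated 18 hrs at 35° C., growth read as absorbance at 595 nm.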

P. aeruginosa = assay: MIC, broth microdilution; assay type: cell-based, Pseudomonas aeruginosa; settings: Pseudomonas aeruginosa; P. aeruginosa PA14; read-out: Minimum inhibitory concentration
[1] = test system: C. elegans infected with MRSA strain MW2; assay type: in vivo
Experimental: The C. elegans-MRSA liquid infection assay has been described (Rajamuthiah et al. Plos One. 2014; 9(2):e89189). In brief, 4,500 glp-4 (bn2); sek-1(km4) L1 hatchlings were grown on SK-HB101 agar plates for 52 hours at the restrictive temperature of 25° C. until animals became sterile young adults and later harvested with M9 buffer. S. aureus MW2 was grown overnight at 37° C. in TSB, first under aerobic conditions and later shifted to anaerobic growth conditions at 37° C. The infection assay was performed in standard 384-well assay plates, in the presence of the compound being tested or 1% dimethyl sulfoxide (DMSO) as a control. Bacteria were added to the wells at a final OD600 of 0.06, followed by the use of a Complex Object Parametric Analyzer and Sorter (COPAS) large particle sorter (Union Biometrica, Holliston, Mass., USA) to transfer 15 adult worms to each well of an assay plate. After 5 days of incubation in a humidified chamber at 25° C., the bacteria and other debris were washed from the wells with a microplate washer and the worms were stained with the vital dye Sytox Orange (Life Technologies). After overnight incubation at 25° C. in a humidified chamber, the plates were imaged using an Image Xpress Micro automated microscope (Molecular Devices, Sunnyvale, Calif., USA), capturing both transmitted light and TRITC (535 nm excitation, 610 nm emission) fluorescent images with a 2× objective. The images from the infection assay were processed using the open source image analysis software CellProfiler and analysis modules as described previously. The ratio of Sytox worm area to bright field worm area, and the resultant percentage survival data, is calculated by the software for each well of the assay plates. The assay was performed in triplicate comparing the survival of worms at various concentrations of drugs.
Killing assays were carried out as described in Methods using S. aureus MRSA MW2 and 10 μg/ml retinoids, 10 μg/ml vancomycin (positive control), or 1% DMSO (negative control) at 25° C. for 5 days. Data are representative of three independent experiments. (B) Chemical structures of synthetic retinoids. (C) Growth of MRSA strain MW2 exposed to the indicated concentrations of compounds was quantified by measuring OD600 after 18 h in tryptic soy broth (TSB). (D) C. elegans infected with MRSA strain MW2 was treated with indicated concentrations of compounds. Percent survival of C. elegans was normalized to C. elegans treated with DMSO. (E-F) MRSA persisters prepared as described in Methods were treated with the indicated concentrations of each retinoid. Viability was measured by serial dilution and plating on TSA plates. The data points on the x-axis are below the level of detection (2×10^2 CFU/ml). (E,F) Results are shown as means±s.d.; n=3.

[2] = test system: Salmonella typhimurium strains TA 1535 and TA 1538
Experimental: The Ames test was conducted using histidine auxotroph Salmonella typhimurium strains TA 1535 and TA 1538. To test mutagenic potential of the synthetic retinoids themselves and their metabolic products, the assay was conducted both with and without rat liver S9 fraction (Moltox, Boone, N.C., USA). Briefly, 100 μl of bacterial overnight cultures was added into 500 μl of phosphate buffer containing a range of amounts of the retinoids dissolved in 10 μl DMSO and with or without 4% S9. After incubation at 37° C. for 1 h, the samples were added into 2 ml of soft agar including 0.5 mM of histidine/biotin, mixed, and poured onto minimal glucose agar plates. The plates were incubated at 37° C. for 48 h, and the revertant colonies were counted. 10 μl DMSO was used as a negative control. […] 5 μg/plate 2-aminoanthracene was used as a positive control for both strains in the metabolic activation system. The test was performed in triplicate.

SMILES: O=C(O)c1ccc(-c2ccc3cc(O)c(C45CC6CC(CC(C6)C4)C5)cc3c2)cc1 [CD1530, 4-(6-hydroxy-7-tricyclo[3.3.1.13,7]dec-1-yl-2-naphthalenyl)-benzoic acid]
- MIC (S. aureus; MRSA, 28 clinical MRSA isolates, 28/28 isolates, read-out: MIC): ≤ 2 µg/mL
- MIC (S. aureus; S. aureus BF1, read-out: Minimum inhibitory concentration): 2 µg/mL (≈ 5.02 µM)
- MIC (S. aureus; S. aureus BF2, read-out: Minimum inhibitory concentration): 1 µg/mL (≈ 2.51 µM)
- MIC (S. aureus; S. aureus BF3, read-out: Minimum inhibitory concentration): 1 µg/mL (≈ 2.51 µM)
- MIC (S. aureus; S. aureus BF4, read-out: Minimum inhibitory concentration): 1 µg/mL (≈ 2.51 µM)
- MIC (S. aureus; S. aureus BF5, read-out: Minimum inhibitory concentration): 1 µg/mL (≈ 2.51 µM)
- MIC (S. aureus; S. aureus BF6, read-out: Minimum inhibitory concentration): 1 µg/mL (≈ 2.51 µM)
- MIC (S. aureus; S. aureus BF7, read-out: Minimum inhibitory concentration): 1 µg/mL (≈ 2.51 µM)
- MIC (S. aureus; S. aureus BF8, read-out: Minimum inhibitory concentration): 1 µg/mL (≈ 2.51 µM)
- MIC (S. aureus; S. aureus BF9, read-out: Minimum inhibitory concentration): 2 µg/mL (≈ 5.02 µM)
- MIC (S. aureus; S. aureus BF10, read-out: Minimum inhibitory concentration): 1 µg/mL (≈ 2.51 µM)
- MIC (S. aureus; S. aureus BF11, read-out: Minimum inhibitory concentration): 1 µg/mL (≈ 2.51 µM)
- MIC (S. aureus; S. aureus JE2 (wild-type), read-out: MIC): 1.5 µg/mL (≈ 3.76 µM)
- MIC (S. aureus; S. aureus MW2, read-out: Minimum inhibitory concentration): 1 µg/mL (≈ 2.51 µM)
- MIC (S. aureus; S. aureus MW2 mutant SP1-8 (graS)): 1.5 µg/mL (≈ 3.76 µM)
- MIC (S. aureus; S. aureus MW2 mutant SP1-48 (graS, manA)): 2 µg/mL (≈ 5.02 µM)
- MIC (S. aureus; S. aureus MW2 mutant SP1-74 (graS, manA, MW2474)): 2 µg/mL (≈ 5.02 µM)
- MIC (S. aureus; S. aureus MW2 mutant SP1-100 (graS, manA, MW2474)): 2 µg/mL (≈ 5.02 µM)
- MIC (S. aureus; S. aureus MW2 mutant SP2-13 (yjbH)): 1.5 µg/mL (≈ 3.76 µM)
- MIC (S. aureus; S. aureus MW2 mutant SP2-52 (yjbH, dltB)): 1.5 µg/mL (≈ 3.76 µM)
- MIC (S. aureus; S. aureus MW2 mutant SP2-59 (yjbH, dltB, manA)): 2 µg/mL (≈ 5.02 µM)
- MIC (S. aureus; S. aureus MW2 mutant SP2-65 (yjbH, dltB, manA, MW1685)): 2 µg/mL (≈ 5.02 µM)
- MIC (S. aureus; S. aureus MW2 mutant SP2-100 (yjbH dltB, manA, MW1685)): 2 µg/mL (≈ 5.02 µM)
- MIC (S. aureus; S. aureus MW2 serial passage culture SP1-1 (no mutated gene)): 1 µg/mL (≈ 2.51 µM)
- MIC (S. aureus; S. aureus MW2 serial passage culture SP2-1 (no mutated gene)): 1 µg/mL (≈ 2.51 µM)
- MIC (S. aureus; S. aureus NE896 (JE2 yjbH::ϕNΣ)): 2 µg/mL (≈ 5.02 µM)
- MIC (S. aureus; S. aureus NE1645 (JE2 manA::ϕNΣ)): 3 µg/mL (≈ 7.53 µM)
- MIC (S. aureus; S. aureus NE1756 (JE2 graS::ϕNΣ)): 2 µg/mL (≈ 5.02 µM)
- MIC (S. aureus; S. aureus VRS1, read-out: Minimum inhibitory concentration): 1 µg/mL (≈ 2.51 µM)
- MIC (S. aureus; methicillin resistant S. aureus (MRSA) strain MW2, read-out: MIC): 1 µg/mL (≈ 2.51 µM)
- MIC (A. baumannii): > 64 µg/mL
- MIC (P. aeruginosa): > 64 µg/mL
- C. elegans animals surviving MRSA infection ([1]; concentrations above the MIC): 100%
- toxicity to C. elegans ([1]; up to 50 μg/ml): nontoxic
- genotoxic potential ([2]; Ames test, result in words): did not show significant genotoxic potential
- Number of revertants (T1535) ([2]; With S9, 5 μg/plate): 7 ± 3
- Number of revertants (T1538) ([2]; With S9, 5 μg/plate): 7 ± 3
- Number of revertants (T1535) ([2]; With S9, 25 μg/plate): 7 ± 2
- Number of revertants (T1538) ([2]; With S9, 25 μg/plate): 10 ± 4
- Number of revertants (T1535) ([2]; With S9, 100 μg/plate): 8 ± 2
- Number of revertants (T1538) ([2]; With S9, 100 μg/plate): 8 ± 2
- Number of revertants (T1535) ([2]; Without S9, 5 μg/plate): 7 ± 3
- Number of revertants (T1538) ([2]; Without S9, 5 μg/plate): 3 ± 3
- Number of revertants (T1535) ([2]; Without S9, 25 μg/plate): 7 ± 2
- Number of revertants (T1538) ([2]; Without S9, 25 μg/plate): 4 ± 2
- Number of revertants (T1535) ([2]; Without S9, 100 μg/plate): 8 ± 4
- Number of revertants (T1538) ([2]; Without S9, 100 μg/plate): 4 ± 2
